Measured values: patent US20160184276A1, “Sphingosine kinase inhibition for the treatment and prevention of obstetrical disorders” (priority 2014, published 2016)
“Also recorded” adds a separate entry of the source.

Experiments:
[1] = test system: LPS-stimulated timed pregnant mice; experiment: LPS-induced preterm birth in timed pregnant mice (in vivo assay)
Procedure: (§1) In Vivo Assay. A total of 17 timed pregnant embryonic day (E) 15.5 mice, weighing between 28 and 35 g, were used for in vivo studies. The control group (n=7) was injected intraperitoneally (ip) with 50 mg/kg lipopolysaccharide (LPS) (serotype 026:B6; Sigma) dissolved in 0.5 ml PBS at T=0 and 50 μl PEG 400 at T=1 and 7 h. The treatment group (n=7) was also injected ip with the same dose of LPS and then injected with 50 mg/kg SphK inhibitor (SKI II) dissolved in PEG 400 at T=1 and 7 h. The sham group (n=3) was injected ip with 0.5 ml PBS at T=0 and 50 μl PEG 400 at T=1 and 7 h. After injections at T=7 h, mice were continuously observed for time of delivery and number of pups dropped. […] All mice were euthanized by carbon dioxide asphyxiation and necropsied to confirm pregnancy and the number of pups retained in utero was recorded. The retained placentas and uteri were harvested and stored at −80° C. or in 10% neutral buffered formalin at room temperature.
(§2) Statistical Analysis. For in vivo studies, the effect of SKI II on the percent of LPS stimulated mice delivering and on the percent of pups rescued from spontaneous abortion was evaluated with the Chi square and Fisher exact tests, respectively. Differences in rates of PTB and rates of pups delivered over time were evaluated with log-rank (Mantel-Cox) or Gehan-Breslow-Wilcoxon test. The U-test along with Analysis of Variance (ANOVA) and Tukey's multiple comparison test were used to evaluate differences in inflammatory infiltration in histologic sections. Differences in mean expression of cytokine proteins in immunoblots and in immunohistochemistry were determined using ANOVA with Tukey's multiple comparison test.

[2] = test system: Tnfα, Il-1β, Il-6 and ECE-1 in placentas; experiment: Western blot analysis of placental lysates from LPS-stimulated mice; type: in vivo; settings: SKI II treated group vs LPS control group
Procedure: as §1
Gel Electrophoresis. Frozen placentas were allowed to thaw on ice. Tissues were homogenized in 0.25 ml ice cold lysis buffer, using a Polytron homogenizer. The samples were homogenized on ice for 2 min at 15 min intervals. This procedure was continued for 2 h and the final homogenates were centrifuged at 10,000×g for 10 min. Volumes of supernatant containing […] of protein based on BCA assay, using bovine serum albumin as standard, were diluted in_NuPAGE® LDS sample buffer and the samples were heated at 95° C. for 5 minutes. Bis-Tris gels were used for protein separation. Gel electrophoresis was carried out in an XCell SureLock Mini-Cell apparatus. The gels were allowed to run for 45 minutes with MOPS running buffer at 125 mA and 200V. Proteins were then transferred to a polyvinylidene difluoride (PVDF) membrane, using an XCell II Blot Module. Transfer was carried out for 2 h on ice at a 170 mA current and a constant voltage of 30 V with NuPAGE transfer buffer
Western Blot Analysis. […] The membranes were analyzed for different proteins using their respective primary antibodies, i.e. TNFα, IL-1β, IL-6, IL-10 and ECE-1 diluted in the blocker solution overnight at 4° C. […] They were then treated with ECL Plus western blotting detection system and the chemiluminescence produced by the chemical reaction was detected by exposure to an autoradiography film. […] The protein content was quantified using Image J software (from NIH). […]
(§3) Statistical Analysis. For in vivo studies, the effect of SKI II on the percent of LPS stimulated mice delivering and on the percent of pups rescued from spontaneous abortion was evaluated with the Chi square and Fisher exact tests, respectively. […]

[3] = test system: Tnfα, Il-1β, Il-6 in placental labyrinth; experiment: Immunohistochemistry of cytokines in placental labyrinth; type: in vivo, mice; settings: SKI II vs LPS
Procedure: as §1
Immunohistochemistry (IHC). Formalin fixed paraffin-embedded tissue sections were used for IHC. The sections were deparaffinized by washing in xylene for 3 min. They were then rehydrated by washing in 100% isopropyl alcohol (2 changes), 95% alcohol, 80% alcohol, 70% alcohol and distilled water for 3 min each. The sections were incubated for 5 min with peroxidase block (3% hydrogen peroxide in water) and washed in distilled water for 3 min. […] Image-Pro Premier DAB analysis software was used for quantification of the results. […]
as §2, with “The U-test along with Analysis of Variance (ANOVA) and Tukey's multiple comparison test were used to evaluate differences in inflammatory infiltration in histologic sections.” left out

[4] = test system: inflammatory cells (neutrophils) in placental labyrinth; experiment: Histology (H & E): inflammatory cell infiltration of placental labyrinth; type: in vivo; settings: SKI II vs LPS-induced mice; P<0.05
Procedure: as §1, with “The retained placentas and uteri were harvested and stored at −80° C. or in 10% neutral buffered formalin at room temperature.” left out
Histology. […] The number of polymorphonuclear neutrophils (PMNs) were counted in the three fields and the average value was recorded. Based on the average number of neutrophils per 400× field recorded, the slides were assigned grades as follows: 0:0-5 cells, 1:6-50 cells, 2:51-100 and 3:greater than 100. […]
as §3

Oc1ccc(Nc2nc(-c3ccc(Cl)cc3)cs2)cc1 [SKI II]
Macroscopic congenital anomalies in pups ([1]; 97 pups of LPS control and SKI II groups): no macroscopic congenital anomalies
Percent of mice delivered prematurely ([1]; LPS 50 mg/kg, SKI II 50 mg/kg at T=1 and 7 h, 1 out of 7 mice, 24 h): 14%
Percent of pups dropped prematurely ([1]; LPS 50 mg/kg, SKI II 50 mg/kg at T=1 and 7 h, 2 out of 50 pups, 24 h): 4%
Rate of pup survival (Kaplan-Meier survival curves, log rank test) ([1]; SKI II treated vs LPS control dams, P<0.0001): statistically significant difference; also recorded: significantly improved
Litter size, fetal growth and development ([1]; observed throughout the study): No significant changes
ECE-1 expression in placenta (Western blot) [2]: clearly suppressed; also recorded: significantly suppressed
Il-1β expression in placental lysates (Western blot) ([2]; P<0.05): reduced; also recorded: significantly suppressed
Il-6 expression in placental lysates (Western blot) ([2]; P<0.05): reduced; also recorded: significantly suppressed
Tnfα expression in placental lysates (Western blot) ([2]; P<0.05): reduced; also recorded: significantly suppressed
Placental labyrinthine level of Il-1β (immunohistochemistry) ([3]; P<0.0001): significantly reduced; also recorded: significantly suppressed
Placental labyrinthine level of Tnfα (immunohistochemistry) ([3]; P<0.0001): significantly reduced; also recorded: significantly suppressed
Placental labyrinthine level of Il-6 (immunohistochemistry) ([3]; P<0.01): significantly reduced; also recorded: significantly suppressed
Inflammatory cell infiltrate in placental labyrinth [4]: significantly reduced; also recorded: subsides significantly
